From ChEMBL document CHEMBL3879895, “Compositions and methods for treating ocular edema, neovascularization and related diseases” (2014) come the findings set out here.

SMILES strings stand for the structures. Calls of active or inactive are those of the source. No cut-off for these calls is given here.

In this assay the test system is Mus musculus. Description: Reduction of neovascular tufts in retina of rhodopsin/VEGF transgenic mouse at 3 to 10 mg/kg, sc bid administered for 7 days started on post natal day 14 measured on post natal day 21 by FITC-conjugated GSA-lectin staining-based fluorescence microscopy. It is filed as functional, organism-based.

Take `COC(=O)N[C@@H](Cc1ccccc1)C(=O)N[C@@H](Cc1ccc(NS(=O)(=O)O)cc1)c1csc(-c2csc(-c3cccs3)n2)n1`: the result was Active.
